Reference: US4751026A, “Substituted anilides of oleic, linoleic, or linolenic acid as inhibitors of acyl-coa:cholesterol acyltransferase” (Warner-Lambert Company, priority 1987, dated 1988)

Experiments:
[1] = biological target: T1, acyl-CoA:cholesterol acyltransferase (ACAT) (Oryctolagus cuniculus, UniProt G1SFD9); assay: In vitro inhibition of ACAT: radio-labeled cholesterol oleate formed from radio-labeled oleic acid in rabbit intestinal microsomes; assay type: biochemical; conditions: inhibition of acylation of cholesterol by oleic acid
T1 construct: in a tissue preparation containing rabbit intestinal microsomes; from tissue; host or cells: rabbit intestine, microsomes
T1 sequence (G1SFD9 1-524): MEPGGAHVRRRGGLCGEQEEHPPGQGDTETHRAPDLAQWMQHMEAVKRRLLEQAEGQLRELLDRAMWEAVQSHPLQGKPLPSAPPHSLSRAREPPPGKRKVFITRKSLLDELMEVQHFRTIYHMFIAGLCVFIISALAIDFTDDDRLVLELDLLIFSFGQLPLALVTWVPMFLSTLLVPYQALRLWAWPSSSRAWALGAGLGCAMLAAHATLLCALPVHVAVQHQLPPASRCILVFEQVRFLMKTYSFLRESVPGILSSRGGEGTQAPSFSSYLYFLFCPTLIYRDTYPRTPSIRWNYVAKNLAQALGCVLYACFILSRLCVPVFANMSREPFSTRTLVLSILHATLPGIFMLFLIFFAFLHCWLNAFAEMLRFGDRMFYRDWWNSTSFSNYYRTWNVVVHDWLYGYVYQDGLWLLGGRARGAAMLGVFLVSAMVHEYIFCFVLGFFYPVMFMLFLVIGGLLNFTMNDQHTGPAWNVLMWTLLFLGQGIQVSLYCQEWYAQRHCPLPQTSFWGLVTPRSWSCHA
Experimental: The ability of representative compounds of the present invention to inhibit ACAT was measured using an in vitro test more fully described in Field, F. J. and Salone, R. G., Biochemica et Biophysica 712: 557-570 (1982). The test assesses the ability of a test compound to inhibit the acylation of cholesterol by oleic acid by measuring the amount of radio-labeled cholesterol oleate formed from radio-labeled oleic acid in a tissue preparation containing rabbit intestinal microsomes.
The data appear in Table 1 where they are expressed as IC50 values; i.e. the concentration of test compound required to inhibit 50% […] of the enzyme.

[2] = tested on: Serum LDL Cholesterol; assay: In vivo serum cholesterol lowering in cholesterol-fed rabbits; set-up: species or system Male, New Zealand white rabbits; conditions: cholesterol-enriched diet, oral 50 mg/kg thirty minutes prior to each meal for seven days, three hours after last meal
Excerpt: Male, New Zealand white rabbits weighing approximately 1 kg were fed a normal diet 40 g per day of rabbit chow (Purina No. 5321, Ralston Purina Co., 711 West Fuesser Road, Mascoutah, Ill., 62224, USA). After six days on this diet, the rabbits were fed 50 g per day for three days of a cholsterol-enriched diet consisting of one part of a cholesterol-containing chow (Purina Catalog No. 841206WLI, 0.25% cholesterol) and two parts of normal chow. Next, the rabbits were fed 60 g per day for four days of a cholsterol-enriched diet consisting of two parts of a cholesterol-containing chow (Purina Catalog No. 814206WLI, 0.25% cholesterol) and one part of normal chow.
After this meal adaptation and cholesterol loading period, the test compounds of this invention were administered to the test animals in oral doses of 50 mg/kg of body weight thirty minutes prior to each meal for seven days. Control animals were administered vehicle only.
The animals were sacrificed three hours after their last meal in the postabsorptive state. Serum cholesterol levels were determined for each animal, and the data appear in Table 2 expressed as percent change in serum cholesterol level compared to control.

| IC50 [1] [nM] | Compound | Percent Change in Serum LDL Cholesterol From Control [2] [%] |
| --- | --- | --- |
| 60 | CCCCCCCC/C=C\CCCCCCCC(=O)Nc1c(OC)cc(OC)cc1OC [(Z)-N-(2,4,6-Trimethoxyphenyl)-9-octadecenamide] | -53 |
| 42 | CCCCC/C=C\C/C=C\CCCCCCCC(=O)Nc1c(OC)cc(OC)cc1OC [(Z,Z)-N-(2,4,6-Trimethoxyphenyl)-9,12-octadecadienamide] |  |
| 86 | CC/C=C\C/C=C\C/C=C\CCCCCCCC(=O)Nc1c(OC)cc(OC)cc1OC [(Z,Z,Z)-N-(2,4,6-Trimethoxyphenyl)-9,12,15-octadecatrienamide] |  |
